From paper PMC4372144 (Nature communications, 2015)

Test system: Type II collagenase
Experiment: Peptide cleavage kinetics, modified fluorescamine assay, Type II collagenase
Assay type: biochemical
Details: 1 U ml^−1 Type II collagenase, pH 7.4, 37°C, duration of the assay 9 hours, fluorescamine read-out

GCEE-NGGSGGSN-GGGH-Methacrylate [Non-degradable peptide]
protease-mediated cleavage of peptide: not detectable
